According to patent US20240043427A1 (Gilead Sciences, Inc., priority 2020, published 2024):

What was measured:
CD73 [1] = target: T1, CD73 (Homo sapiens (Human), UniProt P21589); type: biochemical; conditions: 1 mM NaH2PO4 in enzyme buffer, CD73 0.3 nM, AMP 15 uM
Experimental: Compound serial dilutions were pre-spotted into Thermo Nunc assay plate. 50 uL CD73 enzyme buffer (CD73 purchased from R&D system=0.6 nM, 25 mM Tris, pH 7.4, 5 mM MgCl2, 1 mM NaH2PO4) was added into the assay plate and incubate for 15 mins. […] After incubation for 60 mins, the supernatant (20 uL) was transferred into 384-well NUNC plate pre-filled with 60 uL Quench buffer (80% organic and 20% water+0.1% FA) with internal standard. The plate was spun down at 4500 rpm for 20 mins, then 20 uL of supernatant was transferred to another Nunc plate prefilled with 80 uL of water. The samples were analyzed using Rapid fire.

CD73 [2] = target: T1, CD73; test: MDA-MB-231 Cell Based CD73 Activity Assay (DMEM); conditions: MDA-MB-231-GFP cells, DMEM medium with 10% human plasma, 200 uM AMP

T1 sequence (P21589 27-574): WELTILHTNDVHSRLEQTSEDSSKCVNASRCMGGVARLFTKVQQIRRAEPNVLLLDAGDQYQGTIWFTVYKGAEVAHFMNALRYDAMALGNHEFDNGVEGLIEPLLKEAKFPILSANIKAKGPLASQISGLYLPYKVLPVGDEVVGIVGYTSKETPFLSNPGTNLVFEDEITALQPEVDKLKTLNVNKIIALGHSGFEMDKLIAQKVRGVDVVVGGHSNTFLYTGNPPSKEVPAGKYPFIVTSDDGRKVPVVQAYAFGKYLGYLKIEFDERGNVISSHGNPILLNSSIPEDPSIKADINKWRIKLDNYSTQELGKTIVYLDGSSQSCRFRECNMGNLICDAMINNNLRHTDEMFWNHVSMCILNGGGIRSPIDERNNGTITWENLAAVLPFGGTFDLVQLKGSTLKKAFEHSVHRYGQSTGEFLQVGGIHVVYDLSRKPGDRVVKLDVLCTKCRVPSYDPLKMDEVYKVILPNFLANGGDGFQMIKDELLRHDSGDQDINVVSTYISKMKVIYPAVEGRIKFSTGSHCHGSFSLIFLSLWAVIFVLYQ

Row | Structure (SMILES) | IC50 (CD73 [1]) | EC50 (CD73 [2])
1 | O=c1[nH]cc(-c2cc([C@H]3C[C@@H]3c3cnc4cnn(CC(F)(F)F)c4c3)c3ncc(F)n3n2)c(=O)[nH]1 (racemic) [Example 619, 5-(3-fluoro-8-((1S,2S)-2-(1-(2,2,2-trifluoroethyl)-1H-pyrazolo[4,3-b]pyridin-6-yl)cyclopropyl)imidazo[1,2-b]pyridazin-6-yl)pyrimidine-2,4(1H,3H)-dione] | 0.95 nM | 0.14 nM
2 | O=c1[nH]cc(-c2cc([C@H]3C[C@@H]3c3ncc4cnn(CC(F)(F)F)c4c3F)c3ncc(F)n3n2)c(=O)[nH]1 (racemic) [Example 621, 5-(3-fluoro-8-((1S,2S)-2-(7-fluoro-1-(2,2,2-trifluoroethyl)-1H-pyrazolo[4,3-c]pyridin-6-yl)cyclopropyl)imidazo[1,2-b]pyridazin-6-yl)pyrimidine-2,4(1H,3H)-dione] | 1.32 nM | 0.32 nM
3 | O=c1[nH]cc(-c2cc([C@H]3C[C@@H]3c3cc(-c4ccccc4C(F)(F)F)ccn3)c3nccn3n2)c(=O)[nH]1 (racemic) [Example 622, 5-(8-((1S,2S)-2-(4-(2-(trifluoromethyl)phenyl)pyridin-2-yl)cyclopropyl)imidazo[1,2-b]pyridazin-6-yl)pyrimidine-2,4(1H,3H)-dione] | 2.87 nM | 27.3 nM
4 | O=c1[nH]cc(-c2cc([C@H]3C[C@@H]3c3cc(-c4ccc(F)cc4F)ccn3)c3nccn3n2)c(=O)[nH]1 (racemic) [Example 623, 5-(8-((1S,2S)-2-(4-(2,4-difluorophenyl)pyridin-2-yl)cyclopropyl)imidazo[1,2-b]pyridazin-6-yl)pyrimidine-2,4(1H,3H)-dione] | 2.27 nM | 22 nM
5 | O=c1[nH]cc(-c2cc([C@H]3C[C@@H]3c3cc4c(cn3)nc(C(F)(F)F)n4CC(F)(F)F)c3nccn3n2)c(=O)[nH]1 (racemic) [Example 624, 5-(8-((1S,2S)-2-(1-(2,2,2-trifluoroethyl)-2-(trifluoromethyl)-1H-imidazo[4,5-c]pyridin-6-yl)cyclopropyl)imidazo[1,2-b]pyridazin-6-yl)pyrimidine-2,4(1H,3H)-dione] | 5.81 nM | 0.32 nM
6 | O=c1[nH]cc(-c2cc([C@H]3C[C@@H]3c3ccn4c(C(F)(F)F)ncc4c3)c3nccn3n2)c(=O)[nH]1 (racemic) [Example 625, 5-(8-((1S,2S)-2-(3-(trifluoromethyl)imidazo[1,5-a]pyridin-7-yl)cyclopropyl)imidazo[1,2-b]pyridazin-6-yl)pyrimidine-2,4(1H,3H)-dione] | 2.47 nM | 10.1 nM
7 | O=c1[nH]cc(-c2cc([C@H]3C[C@@H]3c3ccc4nc(C(F)F)n(CC(F)(F)F)c4c3)c3nccn3n2)c(=O)[nH]1 (racemic) [Example 626, 5-(8-((1S,2S)-2-(2-(difluoromethyl)-1-(2,2,2-trifluoroethyl)-1H-benzo[d]imidazol-6-yl)cyclopropyl)imidazo[1,2-b]pyridazin-6-yl)pyrimidine-2,4(1H,3H)-dione] | 5.16 nM | 0.26 nM
8 | O=c1[nH]cc(-c2cc([C@H]3C[C@@H]3c3cc(OCC(F)(F)F)c4cccnc4c3)c3nccn3n2)c(=O)[nH]1 (racemic) [Example 627, 5-(8-((1S,2S)-2-(5-(2,2,2-trifluoroethoxy)quinolin-7-yl)cyclopropyl)imidazo[1,2-b]pyridazin-6-yl)pyrimidine-2,4(1H,3H)-dione] | 2.57 nM | > 50 nM
9 | CC(F)(F)CN1C(=O)C2(CC2)c2ccc([C@H]3C[C@@H]3c3cc(-c4c[nH]c(=O)[nH]c4=O)nn4ccnc34)cc21 (racemic) [Example 733, 5-(8-((1S,2S)-2-(1′-(2,2-difluoropropyl)-2′-oxospiro[cyclopropane-1,3′-indolin]-6′-yl)cyclopropyl)imidazo[1,2-b]pyridazin-6-yl)pyrimidine-2,4(1H,3H)-dione] | 2.72 nM | 0.11 nM
10 | O=C1N(CC2(F)CC2)c2cc([C@H]3C[C@@H]3c3cc(-c4c[nH]c(=O)[nH]c4=O)nn4ccnc34)ccc2C12CC2 (racemic) [Example 734, 5-(8-((1S,2S)-2-(1′-((1-fluorocyclopropyl)methyl)-2′-oxospiro[cyclopropane-1,3′-indolin]-6′-yl)cyclopropyl)imidazo[1,2-b]pyridazin-6-yl)pyrimidine-2,4(1H,3H)-dione] | 1.69 nM | 0.19 nM
11 | O=C1N(CC(F)(F)C(F)F)c2cc([C@H]3C[C@@H]3c3cc(-c4c[nH]c(=O)[nH]c4=O)nn4ccnc34)ccc2C12CC2 (racemic) [Example 736, 5-(8-((1S,2S)-2-(2′-oxo-1′-(2,2,3,3-tetrafluoropropyl)spiro[cyclopropane-1,3′-indolin]-6′-yl)cyclopropyl)imidazo[1,2-b]pyridazin-6-yl)pyrimidine-2,4(1H,3H)-dione] | 1.91 nM | 0.21 nM
12 | O=C1N(CC(F)(F)C(F)(F)F)c2cc([C@H]3C[C@@H]3c3cc(-c4c[nH]c(=O)[nH]c4=O)nn4ccnc34)ccc2C12CC2 (racemic) [Example 737, 5-(8-((1S,2S)-2-(2′-oxo-1′-(2,2,3,3,3-pentafluoropropyl)spiro[cyclopropane-1,3′-indolin]-6′-yl)cyclopropyl)imidazo[1,2-b]pyridazin-6-yl)pyrimidine-2,4(1H,3H)-dione] | 1.79 nM | 0.18 nM
13 | O=C1N(CC(F)(F)C2CC2)c2cc([C@H]3C[C@@H]3c3cc(-c4c[nH]c(=O)[nH]c4=O)nn4ccnc34)ccc2C12CC2 (racemic) [Example 738, 5-(8-((1S,2S)-2-(1′-(2-cyclopropyl-2,2-difluoroethyl)-2′-oxospiro[cyclopropane-1,3′-indolin]-6′-yl)cyclopropyl)imidazo[1,2-b]pyridazin-6-yl)pyrimidine-2,4(1H,3H)-dione] | 1.74 nM | 0.21 nM
14 | O=C1N(CCC(F)(F)F)c2cc([C@H]3C[C@@H]3c3cc(-c4c[nH]c(=O)[nH]c4=O)nn4ccnc34)ccc2C12CC2 (racemic) [Example 746, 5-(8-((1S,2S)-2-(2′-oxo-1′-(3,3,3-trifluoropropyl)spiro[cyclopropane-1,3′-indolin]-6′-yl)cyclopropyl)imidazo[1,2-b]pyridazin-6-yl)pyrimidine-2,4(1H,3H)-dione] | 2.37 nM | 0.84 nM
15 | CC1(C)CN(c2cc(-c3c[nH]c(=O)[nH]c3=O)nn3ccnc23)CC1(F)F [Example 80, 5-[8-(3,3-difluoro-4,4-dimethyl-pyrrolidin-1-yl)imidazo[1,2-b]pyridazin-6-yl]-1H-pyrimidine-2,4-dione] | 1.81 nM | 6.79 nM
16 | CC1(C)CN(c2cc(-c3c[nH]c(=O)[nH]c3=O)nn3c(F)cnc23)CC1(F)F [Example 81, 5-[8-(3,3-difluoro-4,4-dimethyl-pyrrolidin-1-yl)-3-fluoro-imidazo[1,2-b]pyridazin-6-yl]-1H-pyrimidine-2,4-dione] | 1.93 nM | 8.22 nM
17 | O=c1[nH]cc(-c2cc(N3CC(F)(F)C4(CC4)C3)c3ncc(F)n3n2)c(=O)[nH]1 [Example 82, 5-(8-(7,7-difluoro-5-azaspiro[2.4]heptan-5-yl)-3-fluoroimidazo[1,2-b]pyridazin-6-yl)pyrimidine-2,4(1H,3H)-dione] | 3.49 nM | 16.4 nM
18 | O=c1[nH]cc(-c2cc(N3CC(F)(F)C4(CC4)C3)c3nccn3n2)c(=O)[nH]1 [Example 83, 5-(8-(7,7-difluoro-5-azaspiro[2.4]heptan-5-yl)imidazo[1,2-b]pyridazin-6-yl)pyrimidine-2,4(1H,3H)-dione] | 1.47 nM | 6.65 nM
19 | O=c1[nH]cc(-c2cc(N3CC(F)(F)C4(CC4)C3)c3ncnn3n2)c(=O)[nH]1 [Example 84, 5-(8-(7,7-difluoro-5-azaspiro[2.4]heptan-5-yl)-[1,2,4]triazolo[1,5-b]pyridazin-6-yl)pyrimidine-2,4(1H,3H)-dione] | 1.1 nM | 6.56 nM
20 | CC(C)n1ncc2ccc([C@H]3C[C@@H]3c3cc(-c4c[nH]c(=O)[nH]c4=O)nn4ccnc34)cc21 [Example 120, 5-(8-((1S,2S)-2-(1-isopropyl-1H-indazol-6-yl)cyclopropyl)imidazo[1,2-b]pyridazin-6-yl)pyrimidine-2,4(1H,3H)-dione] | 0.85 nM | 0.85 nM
21 | O=c1[nH]cc(-c2cc([C@H]3C[C@@H]3c3ccc(OC(F)F)nc3)c3ncc(F)n3n2)c(=O)[nH]1 [Example 122, 5-(8-((1S,2S)-2-(6-(difluoromethoxy)pyridin-3-yl)cyclopropyl)-3-fluoroimidazo[1,2-b]pyridazin-6-yl)pyrimidine-2,4(1H,3H)-dione] | 2.39 nM | 11.1 nM
22 | O=c1[nH]cc(-c2cc([C@@H]3C[C@H]3c3ccc4cnn(CC(F)F)c4c3)c3nccn3n2)c(=O)[nH]1 [Example 124, 5-(8-((1R,2R)-2-(1-(2,2-difluoroethyl)-1H-indazol-6-yl)cyclopropyl)imidazo[1,2-b]pyridazin-6-yl)pyrimidine-2,4(1H,3H)-dione] | 2.6 nM | 0.62 nM
23 | O=c1[nH]cc(-c2cc([C@H]3C[C@@H]3c3ccc4cnn(CC(F)F)c4c3)c3nccn3n2)c(=O)[nH]1 [Example 125, 5-(8-((1S,2S)-2-(1-(2,2-difluoroethyl)-1H-indazol-6-yl)cyclopropyl)imidazo[1,2-b]pyridazin-6-yl)pyrimidine-2,4(1H,3H)-dione] | 0.71 nM | 0.17 nM
24 | O=c1[nH]cc(-c2cc([C@H]3C[C@@H]3c3ccc4ccn(CC(F)(F)F)c4n3)c3nccn3n2)c(=O)[nH]1 [Example 126, 5-(8-((1S,2S)-2-(1-(2,2,2-trifluoroethyl)-1H-pyrrolo[2,3-b]pyridin-6-yl)cyclopropyl)imidazo[1,2-b]pyridazin-6-yl)pyrimidine-2,4(1H,3H)-dione] | 1.13 nM | 0.46 nM
25 | O=c1[nH]cc(-c2cc([C@H]3C[C@@H]3c3ccc4cnn(CC(F)F)c4c3F)c3nccn3n2)c(=O)[nH]1 [Example 129, 5-(8-((1S,2S)-2-(1-(2,2-difluoroethyl)-7-fluoro-1H-indazol-6-yl)cyclopropyl)imidazo[1,2-b]pyridazin-6-yl)pyrimidine-2,4(1H,3H)-dione] | 1.11 nM | 0.3 nM
